Broadly, the solubility is the dissolved amount per volume that the medium holds.

Converted amounts (≈) assume the structure as drawn. Where two headings read alike, the source gives them in different places.

Data set [1] in a line: Solubility in various media (HPLC). Type of data set: physicochemical. To be noted: for solubility: unpublished data. The protocol: In order to select a solvent for hydrating (i.e., swelling) the cHA gel, the solubilities of QTP hemifumarate and the QTP base in distilled water (DW), phosphate-buffered saline (PBS; pH = 7.4), and ethanol (EtOH) were determined by high-performance liquid chromatography (HPLC). Briefly, an excess amount of QTP hemifumarate or QTP base was added to 1 mL of each solvent and completely vortex-mixed with vortex shaker (Vortex-Genie 2; Scientific Industries, Inc., Bohemia, NY, USA) at […] 37 °C for 1 day. Upon reaching the steady state, each sample was centrifuged and filtered to eliminate undissolved fractions. An HPLC system equipped with an automatic injector (Waters 717 plus), a pump (Waters 1515; Waters Company, Milford, MA, USA), and a UV/VIS detector (Waters 2487) connected with a reverse-phase C18 column (Kinetex C18; 250 × 4.6 mm, 5 μm; Phenomenex, Torrance, CA, USA) was utilized for measuring the concentration of QTP in each medium. The flow rate of the mobile phase and the injection volume of the specimen were set to 1.0 mL/min and 20 μL, respectively. The mobile phase consisted of 30 mM ammonium acetate in DW (pH 6.0) and methanol (30:70, v/v). The absorption wavelength was set to 238 nm for detection and the retention time of QTP was 14 min [23].
The QTP base precipitate was prepared using a previously reported desalting method with a slight modification. Briefly, QTP hemifumarate (10 mg) was solubilized in a 1 N HCl solution (0.7 mL), and then, a 1 N NaOH solution (0.8 mL) was added for precipitating the QTP base. The sample was then centrifuged at 16,000× g for 5 min and the supernatant portion was eliminated. After adding 1 mL of DW to the precipitate, it was centrifuged again, and the supernatant was removed. Finally, the QTP base precipitate was freeze-dried at −70 °C for 48 h for further use.

Data set [2] concerns the target T1, HAase (from bovine testes) (Bos taurus, UniProt Q2YDK3).
T1 construct: purchased Sigma-Aldrich Co. (St. Louis, MO, USA); host or cells: bovine testes (tissue-derived preparation)
T1 sequence (Q2YDK3 36-553): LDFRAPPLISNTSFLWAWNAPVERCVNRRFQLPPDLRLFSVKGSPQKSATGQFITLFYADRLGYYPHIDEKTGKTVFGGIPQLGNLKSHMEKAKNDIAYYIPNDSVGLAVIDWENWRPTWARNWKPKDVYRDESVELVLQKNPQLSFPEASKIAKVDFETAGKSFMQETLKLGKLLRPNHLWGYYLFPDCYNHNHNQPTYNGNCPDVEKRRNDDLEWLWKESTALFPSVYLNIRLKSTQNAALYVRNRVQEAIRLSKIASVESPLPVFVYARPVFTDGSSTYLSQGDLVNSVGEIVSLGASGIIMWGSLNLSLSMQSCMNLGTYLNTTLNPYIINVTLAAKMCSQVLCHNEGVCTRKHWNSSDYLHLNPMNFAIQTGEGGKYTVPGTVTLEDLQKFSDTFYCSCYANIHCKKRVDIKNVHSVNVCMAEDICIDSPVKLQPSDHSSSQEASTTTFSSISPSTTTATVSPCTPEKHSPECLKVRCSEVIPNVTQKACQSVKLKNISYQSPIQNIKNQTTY
The experiment in a line: In vitro degradation of cHA hydrogels in PBS containing HAase. To be noted: QCT loaded in cHA hydrogels, 8 h, 5 U/mL HAase. Type of data set: in vitro ADME. The protocol:
The in vitro degradation feature of the cHA hydrogel structures was investigated by monitoring the mass change of the hydrogels compared to their initial weight according to a previously reported, slightly modified method. Briefly, to evaluate the weight change of the cHA and QCT-loaded cHA hydrogels (i.e., cHA/QCT1, cHA/QCT3, and cHA/QCT5), each gel specimen (approximately 1.1 g) was placed into 10 mL of a PBS solution containing 5 U/mL of HAase. Upon immersion in the media, the weight of the hydrogels was measured at 2, 4, 6, and 8 h. The remaining weight percentage (%) of each hydrogel compared to the initial weight was recorded.

The nature of data set [3]: In vitro release of QTP (dialysis bag method). To be noted: within 8 h; PBS with 0.5% SLS, 37 °C. Type of data set: physicochemical. The protocol: The release of QTP from the cHA hydrogels was measured using the dialysis bag method. Briefly, aliquots of the free QTP solution (in ethanol/PEG 400/PBS = 1/1/2 (v/v/v)) and the QTP-loaded hydrogels (i.e., cHA/QTP and cHA/QTP/QCT5) (corresponding to 12 mg of QTP) were loaded into dialysis membranes (2 kDa of molecular weight cut-off; Cellu Sep H1, Membrane Filtration Products Ltd., Seguin, TX, USA). In case of cHA/QTP/QCT5 + HAase group, HAase (1 mg/mL) was added to the cHA/QTP/QCT5 hydrogel. Each membrane sac was immersed in PBS (20 mL) containing 0.5% SLS, and then they were agitated in a shaking water bath (37 °C) at 50 rpm. Aliquots of the release media were collected at 0.5, 1, 2, 4, 6, 8, 24, 48, 72, 96, 144, 168, 192, 288, 336, and 360 h, and the same volume of fresh medium was replenished each time. The QTP concentrations in the release media were quantitatively determined by the HPLC method described above.

The conditions of data set [4]: rats, intragastric administration; cited from earlier work.

Turning to `OCCOCCN1CCN(C2=Nc3ccccc3Sc3ccccc32)CC1` [QTP base, quetiapine], the solubility at 1 day in data set [1] (ethanol, organic solvent or mixture, thermodynamic from solid, EtOH, Figure 2A) was more than 50 mg/mL.

`O=c1c(O)c(-c2ccc(O)c(O)c2)oc2cc(O)cc(O)c12` [QCT, quercetin]: the HAase inhibition entry in data set [2] is listed as “inhibited HAase in a dose-dependent manner”. Further, the solubility in data set [1] (ethanol, organic solvent or mixture, EtOH, read-out: Solubility in EtOH) was 17.6 ± 1.05 mg/mL (≈ 58.4 mM); in data set [1] (water, read-out: Solubility in water) it was less than 0.01 mg/mL.

`OCCOCCN1CCN(C2=Nc3ccccc3Sc3ccccc32)CC1` [QTP, quetiapine]: the “QTP diffused from the dialysis membrane” value in data set [3] was “over 90%”. The Biological half-life in data set [4] is recorded as 2.1 h.

These data come from PMC7910999, “Hyaluronidase Inhibitor-Incorporated Cross-Linked Hyaluronic Acid Hydrogels for Subcutaneous Injection” (Pharmaceutics, 2021).
